In patent US6392085B1, “Therapeutic nucleosides” (SmithKline Beecham Corporation, priority 1992, dated 2002):
Where two headings read alike, the source gives them in different places.

How the values were obtained:
[1] = tested on: Human cytomegalovirus (HCMV); assay: Anti-HCMV plaque reduction assay in monolayers of MRCS cells (human embryonic lung); format: cell-based; settings: Human betaherpesvirus 5, 50% inhibitory concentration estimated from dose-response curve
Protocol: Human cytomegalovirus (HCMV) is assayed in monolayers of MRCS cells (human embryonic lung) in multiwell trays. Activity of compounds is determined in the plaque reduction assay, in which a cell monolayer is infected with a suspension of HCMV. A range of concentrations of the compound to be tested (of known moiarity) is then incorporated into the carboxymethyl cellulose overlay. Plaque numbers of each concentration are expressed as percentage of the control and a dose-response curve is drawn. From this curve the 50% inhibitory concentration (IC50) is estimated.

[2] = tested on: human bon marrow progenitor cells (CFU-GM); assay: Toxicity in human bone marrow progenitor cells in vitro, CFU-GM; format: cell-based
Protocol: (§1) Compounds of formula (I) were tested fortoxicity in human bon marrow progenitor cells, in vitro, by the method of Dornsife, R. E. et at., 1991, Antimicrob. Agents Chemother., 35: 322-328. Three separate assays were performed using marrow from three different donors.

[3] = tested on: human bon marrow progenitor cells (BFU-E); assay: Toxicity in human bone marrow progenitor cells in vitro, BFU-E; format: cell-based; settings: 50% inhibition of bone marrow progenitor cells; three assays, marrow from three donors
Protocol: as §1

[4] = tested on: hepatitis B viral replication; settings: Proc. Natl. Acad. Sci. USA 1989, 86, 8541-8544; cited from earlier work
[5] = tested on: herpes simplex virus type 1 (HSV-1); settings: J. Med. Chem. 1987, 30, 746-749; Biochem. Pharmacol. 1990, 40, 1515-1522; especially the (+)-enantiomer; cited from earlier work
[6] = 50% inhibition of bone marrow progenitor cells, three assays, marrow from three donors

Row | Structure (SMILES) | IC50 [1] [µM] | Cell Toxicity I50 CFU-GM [2, 6] [µM] | Cell Toxicity I50 BFU-E [3] | melting point [°C] | Cell Toxicity I50 CFU-GM [2] [µM] | inhibition of hepatitis B viral replication [4] | activity against HSV-1 [5]
1 | Nc1nc(NCC2CC2)c2ncn([C@@H]3C[C@H](CO)[C@@H](O)C3)c2n1 (racemic) [Ex. 22, (±) (1S, 2R, 4R)-4-[2-Amino-6-(cyclopropylmethylamino)-9H-purin-9-yl]-2-(hydroxymethyl)-1-cyclopentanol] | 3.1 | 34 ± 14 | >>50 μM |  |  |  | 
2 | Nc1nc(OC2CCCC2)c2ncn([C@@H]3C[C@H](CO)[C@@H](O)C3)c2n1 (racemic) [Example 28, (±)-(1S, 2R, 4R)-4-(2-Amino-6-(cyclopentyloxy)-9H-purin-9-yl)-2-(hydroxymethyl)-1-cyclopentanol] |  |  |  | 181 to 182 |  |  | 
3 | Nc1nc2c(ncn2[C@@H]2C[C@H](CO)[C@@H](O)C2)c(=O)[nH]1 (relative stereo) [2′-CDG, (1R*, 3S*, 4R)-2-amino-1,9-dihydro-9-[3-hydroxy-4-hydroxymethyl)cyclopentyl]-6H-purine-6-one, reference compound] |  |  | 4 ± 2 µM |  | 0.4 ± 0.3 | inhibits hepatitis B viral replication | active against herpes simplex virus type 1
4 | Cl.Cl.Nc1nc(NC2CC2)c2ncn([C@H]3C[C@@H](CO)[C@H](O)C3)c2n1 (stereo in doubt) |  |  |  | > 250 |  |  | 
5 | Nc1nc(NC2CC2)c2ncn([C@@H]3C[C@H](CO)[C@@H](O)C3)c2n1 (stereo in doubt) [Ex. 23, (±)-(1S, 2R, 4R)-4-[2-Amino-6-(cyclopropylamino)-9H-purin-9-yl]-2-(hydroxymethyl)-1-cyclopentanol] | 2.8 | 14 ± 1 | 55 ± 15 µM | 174 to 176 |  |  | 
